The text below walks through data of US20240025891A1 (Celgene Corporation, priority 2020, published 2024).

Bounds are passed on as bounds.

The test system of this test is Onchocerca gutturosa adult male worms. Description: Onchocerciasis in vitro screening model Onchocerca gutturosa (worm motility score and MTT/formazan colorimetry). Particulars: Onchocerca gutturosa, read-out: O. gutt Act class.
Method: Onchocerciasis: In Vitro Screening Model Onchocerca gutturosa
Parasite and cell cultures. Onchocerca gutturosa adult male worms were obtained by dissection from the nuchal ligament connective tissues of naturally infected cattle, from Gambia, W Africa.
The worms were maintained for at least 24 h in culture before use in Eagles Minimum Essential Medium with Earl's Salts (Gibco, UK)+10% heat inactivated new born calf serum (Gibco, UK)+antibiotic cover of 200 units/ml penicillin, 200 μg/ml streptomycin and 0.5 μg/ml amphotericin B (Sigma, UK). Only normally active specimens were used in the test. All cultures and assays were conducted at 37° C. under an atmosphere of 5% CO2 in air.
Drug sensitivity assays. Compound stock solutions were prepared in 100% DMSO unless otherwise indicated and diluted into the medium. Any unused compound stocks were stored at −20° C. Assays were performed in sterile 24-well (2 ml) plates (Falcon, UK).
Worms were then transferred individually to each well of the plate using fine forceps. Worm viability was assessed using 2 parameters: • The measurement of mean worm motility scores on a scale of 0 (immotile) to 10 (maximum) every 24 h, terminating at 120 h, using an Olympus inverted microscope. • The biochemical evaluation of worm viability using MTT/formazan colorimetry. The MTT assay was carried out after the last motility reading (120 h). Single intact worms were placed in each well of a 48-well plate (Falcon, UK) containing 0.5 ml of a solution consisting of 0.5 mg/ml MTT (Sigma UK) in phosphate buffered saline, and then incubated for 30 min at 37° C. The worms were removed, blotted carefully, and individually transferred to separate wells of a 96-well microtiter plate, each containing 200 μl of DMSO to solubilize the formazan. After 1 h the plate was gently agitated to disperse the color evenly and the absorbance value (optical density) of the resulting formazan solution was determined at 490 nm using a multi-well scanning spectrophotometer (Elisa-reader, Dynatech, UK). Inhibition of formazan formation was correlated with worm damage or death.
Primary screen. New compounds were usually tested at 1.25×10^−5 M. Also expressed in μg/ml.
Secondary screen. […] Serial 1 in 4 drug dilutions was carried out to find activity endpoint and EC50 values for motility reduction and inhibition of formazan formation were produced. EC50 values were determined using Excel or Origin V7 scientific graphing and data analysis software.
In the case of `COc1ccc(-c2ncc(Nc3cc(OC(C)C)ccn3)s2)nc1` [Example 113, N-(4-isopropoxypyridin-2-yl)-2-(5-methoxypyridin-2-yl)thiazol-5-amine], the IC50 is 500 to 5000 nM. Take `Cc1ccnc(Nc2cnc(-c3ncccc3C)s2)c1` [Example 114, 2-(3-methylpyridin-2-yl)-N-(4-methylpyridin-2-yl)thiazol-5-amine]: the IC50 is less than 200 nM.

Regarding `Cc1ccnc(Nc2csc(-c3ncccc3C)n2)c1` [Example 115, 2-(3-methylpyridin-2-yl)-N-(4-methylpyridin-2-yl)thiazol-4-amine], the IC50 lay within 500 to 5000 nM. Regarding `Cc1cccnc1Nc1cc(-c2ccc(OC3CCOCC3)cn2)ns1` [Example 116, N-(3-methylpyridin-2-yl)-3-(5-(tetrahydro-2H-pyran-4-yloxy)pyridin-2-yl)isothiazol-5-amine], the IC50 is 500 to 5000 nM. For the compound `COc1ccc(-c2cc(Nc3cc(OC(C)C)ccn3)sn2)nc1` [Example 117, N-(4-isopropoxypyridin-2-yl)-3-(5-methoxypyridin-2-yl)isothiazol-5-amine], the IC50 fell in the range of 500 to 5000 nM. For the compound `Cc1ccnc(Nc2cc(-c3ncccc3C)ns2)c1` [Example 118, 3-(3-methylpyridin-2-yl)-N-(4-methylpyridin-2-yl)isothiazol-5-amine], the IC50 lay within 500 to 5000 nM. For `c1ccc(-c2ccnc(Nc3cc(-c4ccccn4)ns3)c2)cc1` [Example 119, N-(4-phenylpyridin-2-yl)-3-(pyridin-2-yl)isothiazol-5-amine], the IC50 lay in the range of 500 to 5000 nM. With `FC(F)(F)c1ccnc(Nc2nc(-c3ccccn3)cs2)c1` [Example 120, 4-(pyridin-2-yl)-N-(4-(trifluoromethyl)pyridin-2-yl)thiazol-2-amine], the IC50 was less than 200 nM.

For `COc1ccnc(Nc2nc(-c3ccccn3)cs2)c1` [Example 121, N-(4-methoxypyridin-2-yl)-4-(pyridin-2-yl)thiazol-2-amine], the IC50 lay in the range of 200 to 500 nM. As for `Oc1ccc(Nc2nc(-c3ccccn3)cs2)nc1` [Example 122, 6-(4-(pyridin-2-yl)thiazol-2-ylamino) pyridin-3-ol], the IC50 fell in the range of 500 to 5000 nM. The result for `CCc1ccc(Nc2nc(-c3ccccn3)cs2)nc1` [Example 123, N-(5-ethylpyridin-2-yl)-4-(pyridin-2-yl)thiazol-2-amine] reads less than 200 nM; that for `Cc1cnc(Nc2nc(-c3ccccn3)cs2)c(C)c1` [Example 124, N-(3,5-dimethyl-pyridin-2-yl)-4-(pyridin-2-yl)thiazol-2-amine], less than 200 nM; that for `c1ccc(-c2cccnc2Nc2nc(-c3ccccn3)cs2)cc1` [Example 125, N-(3-phenylpyridin-2-yl)-4-(pyridin-2-yl)thiazol-2-amine], 500 to 5000 nM. As for `c1ccc(-c2ccnc(Nc3nc(-c4ccccn4)cs3)c2)cc1` [Example 126, N-(4-phenylpyridin-2-yl)-4-(pyridin-2-yl)thiazol-2-amine], the IC50 was less than 200 nM.

Consider `CC(C)c1cnc(Nc2nc(-c3ccccn3)cs2)cc1C(F)(F)F` [Example 127, N-(5-isopropyl-4-(trifluoro-methyl)pyridin-2-yl)-4-(pyridin-2-yl)thiazol-2-amine], for which the IC50 lay in the range of 500 to 5000 nM.

Take `c1ccc(-c2csc(Nc3cc4ccccc4cn3)n2)nc1` [Example 128, N-(isoquinolin-3-yl)-4-(pyridin-2-yl)thiazol-2-amine]: the IC50 was less than 200 nM. The same measure for `Cc1cnc(Nc2nc(-c3ccccn3)cs2)cc1C(F)(F)F` [Example 129, N-(5-methyl-4-(trifluoro-methyl)pyridin-2-yl)-4-(pyridin-2-yl)thiazol-2-amine]: less than 200 nM; for `CCc1cnc(Nc2nc(-c3ccccn3)cs2)cc1C(F)(F)F` [Example 130, N-(5-ethyl-4-(trifluoro-methyl)pyridin-2-yl)-4-(pyridin-2-yl)thiazol-2-amine]: less than 200 nM; for `CN1CCN(c2ccc(Nc3nc(-c4ccccn4)cs3)nc2)CC1` [Example 131, N-(5-(4-methyl-piperazin-1-yl)pyridin-2-yl)-4-(pyridin-2-yl)thiazol-2-amine]: less than 200 nM. In the case of `Cc1ccnc(Nc2nc(-c3ccccn3)c(C)s2)c1` [Example 132, 5-methyl-N-(4-methyl-pyridin-2-yl)-4-(pyridin-2-yl)thiazol-2-amine], the IC50 lay in the range of 200 to 500 nM.

On to `c1ccc(-c2csc(Nc3ccc4cc[nH]c4n3)n2)nc1` [Example 134, 4-(pyridin-2-yl)-N-(1H-pyrrolo [2,3-b]pyridin-6-yl)thiazol-2-amine], for which the IC50 was less than 200 nM. As for `c1ccc(-c2csc(Nc3ccc4[nH]ccc4n3)n2)nc1` [Example 135, 4-(pyridin-2-yl)-N-(1H-pyrrolo [3,2-b]pyridin-5-yl)thiazol-2-amine], the IC50 was in the range of 500 to 5000 nM. On to `c1ccc(-c2csc(Nc3cc4[nH]ccc4cn3)n2)nc1` [Example 136, 4-(pyridin-2-yl)-N-(1H-pyrrolo [3,2-c]pyridin-6-yl)thiazol-2-amine], for which the IC50 was less than 200 nM.

As to `c1ccc(-c2csc(Nc3cc4cc[nH]c4cn3)n2)nc1` [Example 137, 4-(pyridin-2-yl)-N-(1H-pyrrolo [2,3-c]pyridin-5-yl)thiazol-2-amine], the IC50 fell in the range of 500 to 5000 nM. Consider `c1ccc(-c2csc(Nc3ccc(C4CCCC4)cn3)n2)nc1` [Example 138, N-(5-cyclopentyl-pyridin-2-yl)-4-(pyridin-2-yl)thiazol-2-amine], for which the IC50 is less than 200 nM. For the compound `NC(=O)c1ccnc(Nc2nc(-c3ccccn3)cs2)c1` [Example 139, 2-(4-(pyridin-2-yl)thiazol-2-ylamino) iso-nicotinamide], the IC50 was less than 200 nM.

`FC(F)(F)c1cc(Nc2nc(-c3ccccn3)cs2)ncc1Br` [Example 140, N-(5-bromo-4-(trifluoro-methyl)pyridin-2-yl)-4-(pyridin-2-yl)thiazol-2-amine]: the IC50 lay in the range of 500 to 5000 nM. Turning to `O=C(NCC(F)(F)F)c1ccnc(Nc2nc(-c3ccccn3)cs2)c1` [Example 141, 2-(4-(pyridin-2-yl)thiazol-2-ylamino)-N-(2,2,2-trifluoroethyl) isonicotinamide], the IC50 is 200 to 500 nM.

Regarding `COCCNC(=O)c1ccnc(Nc2nc(-c3ccccn3)cs2)c1` [Example 142, N-(2-methoxyethyl)-2-(4-(pyridin-2-yl)thiazol-2-ylamino) isonicotinamide], the IC50 was in the range of 200 to 500 nM. With `O=C(c1ccnc(Nc2nc(-c3ccccn3)cs2)c1)N1CCOCC1` [Example 143, morpholino (2-(4-(pyridin-2-yl)thiazol-2-ylamino)pyridin-4-yl)methanone], the IC50 fell in the range of 200 to 500 nM. As for `O=C(c1ccnc(Nc2nc(-c3ccccn3)cs2)c1)N1CCNCC1` [Example 144, piperazin-1-yl(2-(4-(pyridin-2-yl)thiazol-2-ylamino)pyridin-4-yl)methanone], the IC50 was 200 to 500 nM. As to `O=C(c1ccnc(Nc2nc(-c3ccccn3)cs2)c1)N1CCC(F)(F)CC1` [Example 145, (4,4-difluoro-piperidin-1-yl)(2-(4-(pyridin-2-yl)thiazol-2-ylamino)pyridin-4-yl)methanone], the IC50 was less than 200 nM.

On to `CC(C)NC(=O)c1ccnc(Nc2nc(-c3ccccn3)cs2)c1` [Example 146, N-isopropyl-2-(4-(pyridin-2-yl)thiazol-2-ylamino) isonicotinamide], for which the IC50 was less than 200 nM.

For the compound `O=C(NC1CCCC1)c1ccnc(Nc2nc(-c3ccccn3)cs2)c1` [Example 147, N-cyclopentyl-2-(4-(pyridin-2-yl)thiazol-2-ylamino) isonicotinamide], the IC50 is less than 200 nM. `C[C@@H](CO)NC(=O)c1ccnc(Nc2nc(-c3ccccn3)cs2)c1` [Example 148, (S)-N-(1-hydroxy-propan-2-yl)-2-(4-(pyridin-2-yl)thiazol-2-ylamino) isonicotinamide]: the IC50 is 200 to 500 nM. Regarding `O=C1CN(C(=O)c2ccnc(Nc3nc(-c4ccccn4)cs3)c2)CCN1` [Example 149, 4-(2-(4-(pyridin-2-yl)thiazol-2-ylamino)isonicotinoyl) piperazin-2-one], the IC50 lay in the range of 500 to 5000 nM.

Regarding `O=C(NC1CCC(C(F)(F)F)CC1)c1ccnc(Nc2nc(-c3ccccn3)cs2)c1` (centres unmarked) [Example 150, 2-(4-(pyridin-2-yl)thiazol-2-ylamino)-N-(4-(trifluoromethyl)cyclohexyl) isonicotinamide], the IC50 was less than 200 nM.

With `O=C(NC1CCC(F)(F)CC1)c1ccnc(Nc2nc(-c3ccccn3)cs2)c1` [Example 151, N-(4,4-difluoro-cyclohexyl)-2-(4-(pyridin-2-yl)thiazol-2-ylamino) isonicotinamide], the IC50 was less than 200 nM. In the case of `O=C(NCCN1CCCC1)c1ccnc(Nc2nc(-c3ccccn3)cs2)c1` [Example 152, 2-(4-(pyridin-2-yl)thiazol-2-ylamino)-N-(2-(pyrrolidin-1-yl)ethyl) isonicotinamide], the IC50 lay within 200 to 500 nM. The same measure for `O=C(c1ccnc(Nc2nc(-c3ccccn3)cs2)c1)N1CC(F)(F)C1` [Example 153, (3,3-difluoroazetidin-1-yl)(2-(4-(pyridin-2-yl)thiazol-2-ylamino)pyridin-4-yl)methanone]: less than 200 nM; for `O=C(NCCO)c1ccnc(Nc2nc(-c3ccccn3)cs2)c1` [Example 154, N-(2-hydroxyethyl)-2-(4-(pyridin-2-yl)thiazol-2-ylamino) isonicotinamide]: 200 to 500 nM. The same measure for `O=C(N1CCN(c2ccc(Nc3nc(-c4ccccn4)cs3)nc2)CC1)C1(C(F)(F)F)CC1` [Example 155, (4-(6-(4-(pyridin-2-yl)thiazol-2-ylamino)pyridin-3-yl)piperazin-1-yl)(1-(trifluoromethyl)cyclopropyl) methanone]: less than 200 nM; for `CC(C)(O)C(=O)N1CCN(c2ccc(Nc3nc(-c4ccccn4)cs3)nc2)CC1` [Example 156, 2-hydroxy-2-methyl-1-(4-(6-(4-(pyridin-2-yl)thiazol-2-ylamino)pyridin-3-yl)piperazin-1-yl)propan-1-one]: less than 200 nM; for `O=C(O)C1CCCN(c2ccc(Nc3nc(-c4ccccn4)cs3)nc2)C1` (centres unmarked) [Example 157, 1-(6-(4-(pyridin-2-yl)thiazol-2-ylamino)pyridin-3-yl)piperidine-3-carboxylic acid]: 500 to 5000 nM.
